# From publication PMC6378217, “The lysyl oxidase like 2/3 enzymatic inhibitor, PXS‐5153A, reduces crosslinks and ameliorates fibrosis” (Journal of Cellular and Molecular Medicine, 2018)
# Key:
# [1] = target: Transporter, Norepinephrine (NET) (Homo sapiens, UniProt P23975); assay: Eurofins Hit Profiling Screen; assay type: binding; conditions: 10 μmol/L
# Recombinant human LOXL3 = target: T1, Recombinant human LOXL3 (Homo sapiens, UniProt P58215); assay: Amplex-Red fluorometric enzymatic activity assay, recombinant human LOXL3; assay type: biochemical; conditions: 30 minute pre-incubation; average of at least three experiments
# T1 construct: purchased R&D Systems
# T1 sequence (P58215 26-753): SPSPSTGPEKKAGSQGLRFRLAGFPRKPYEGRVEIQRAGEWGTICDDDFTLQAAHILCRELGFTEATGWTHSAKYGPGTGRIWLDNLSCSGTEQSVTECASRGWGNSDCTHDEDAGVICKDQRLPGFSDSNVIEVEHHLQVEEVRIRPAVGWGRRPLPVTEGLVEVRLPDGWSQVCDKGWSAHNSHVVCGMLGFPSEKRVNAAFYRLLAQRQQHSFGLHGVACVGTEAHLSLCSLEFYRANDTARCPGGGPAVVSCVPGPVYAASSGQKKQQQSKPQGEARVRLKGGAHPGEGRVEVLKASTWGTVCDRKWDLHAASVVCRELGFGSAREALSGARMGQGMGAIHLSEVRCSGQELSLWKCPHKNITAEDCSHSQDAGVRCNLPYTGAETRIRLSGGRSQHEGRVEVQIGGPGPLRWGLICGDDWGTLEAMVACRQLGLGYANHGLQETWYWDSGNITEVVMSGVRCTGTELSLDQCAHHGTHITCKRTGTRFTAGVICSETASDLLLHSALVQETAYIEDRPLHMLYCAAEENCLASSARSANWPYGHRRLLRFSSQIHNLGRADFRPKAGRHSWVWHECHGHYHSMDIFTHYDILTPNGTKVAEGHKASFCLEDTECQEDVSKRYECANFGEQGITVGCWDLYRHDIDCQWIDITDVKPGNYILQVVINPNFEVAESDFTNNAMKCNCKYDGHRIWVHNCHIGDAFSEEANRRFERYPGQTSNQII
# Experimental: (§1) The measurement of the enzymatic activity of all lysyl oxidase family members was based on the detection of hydrogen peroxide with an Amplex‐Red oxidation assay, as described in Zhou et al26 Recombinant human semicarbazide sensitive amine oxidase (SSAO/VAP1), diamine oxidase (DAO) and monoamine oxidases A and B (MAO‐A and MAO‐B) assays were performed as previously described.27 For detailed enzymatic procedures, see supporting information.
# (§2) The measurement of the enzymatic activity of all lysyl oxidase family members was based on the detection of hydrogen peroxide with an Amplex-Red oxidation assay, as described in Zhou et al.[1]; miniaturised in 384 well format, with the appropriate combination of substrate and assay buffer for each individual enzyme. After a 30 minute pre-incubation of the enzyme at 37 °C with the test compound (or with different incubation times for the time-dependency assay), one volume of reaction mixture containing 120 μM Amplex Red (AR) (Life Technologies), 1.5 U/mL horseradish peroxidase (HRP) (Sigma-Aldrich) and the specific substrate was added to each sample. The relative fluorescence units (RFU) were then measured every 2.5 minutes for 30 minutes at 37°C, excitation 565 nm and emission 590, on a BMG Clariostar Microplate Reader. […]
# LOXL2 = target: T2, LOXL2 (Homo sapiens, UniProt Q9Y4K0); assay: Time dependency of LOXL2 inhibition; assay type: biochemical
# T2 sequence (Q9Y4K0 26-774): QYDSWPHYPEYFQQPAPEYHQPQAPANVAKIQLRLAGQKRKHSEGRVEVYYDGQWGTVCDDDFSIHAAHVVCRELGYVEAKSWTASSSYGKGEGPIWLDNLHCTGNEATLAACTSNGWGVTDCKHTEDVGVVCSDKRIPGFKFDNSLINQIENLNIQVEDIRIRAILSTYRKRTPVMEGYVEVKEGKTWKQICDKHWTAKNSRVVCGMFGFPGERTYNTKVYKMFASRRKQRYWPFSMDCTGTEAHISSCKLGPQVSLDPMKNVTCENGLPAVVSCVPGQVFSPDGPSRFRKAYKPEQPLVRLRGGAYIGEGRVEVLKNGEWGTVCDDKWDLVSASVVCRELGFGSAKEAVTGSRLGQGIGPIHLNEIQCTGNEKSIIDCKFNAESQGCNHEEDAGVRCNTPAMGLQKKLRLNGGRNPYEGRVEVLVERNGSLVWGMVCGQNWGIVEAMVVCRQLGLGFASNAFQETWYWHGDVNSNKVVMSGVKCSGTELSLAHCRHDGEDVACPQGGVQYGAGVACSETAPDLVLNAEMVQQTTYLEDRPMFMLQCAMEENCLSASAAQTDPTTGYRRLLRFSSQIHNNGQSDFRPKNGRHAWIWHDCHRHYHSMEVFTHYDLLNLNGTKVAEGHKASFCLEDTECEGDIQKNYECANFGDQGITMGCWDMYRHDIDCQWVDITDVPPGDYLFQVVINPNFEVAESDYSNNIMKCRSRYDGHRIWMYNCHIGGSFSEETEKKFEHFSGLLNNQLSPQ
# Experimental: The measurement of the enzymatic activity of all lysyl oxidase family members was based on the detection of hydrogen peroxide with an Amplex-Red oxidation assay, as described in Zhou et al.[1]; miniaturised in 384 well format, with the appropriate combination of substrate and assay buffer for each individual enzyme. After a 30 minute pre-incubation of the enzyme at 37 °C with the test compound (or with different incubation times for the time-dependency assay), one volume of reaction mixture containing 120 μM Amplex Red (AR) (Life Technologies), 1.5 U/mL horseradish peroxidase (HRP) (Sigma-Aldrich) and the specific substrate was added to each sample. The relative fluorescence units (RFU) were then measured every 2.5 minutes for 30 minutes at 37°C, excitation 565 nm and emission 590, on a BMG Clariostar Microplate Reader. All the substrates were used at concentrations corresponding to their Km towards the corresponding enzyme, or with a range of different concentrations for the substrate competition experiments.
# Time-dependent inhibition of the target by the compound was assessed by pre-incubation of 25 uL of target enzyme at 37 °C in a 384-well plate. An 11-point dilution was carried out of the test compound followed by its addition at 0.5 uL to the enzyme plate at different time points (0 minutes, 15 minutes, 30 minutes, 1hour, 2 hours and 4 hours unless otherwise stated in the graph). At the last time point, the reaction mixture was added and the relative fluorescence was measured.
# [2] = test system: fibrotic marker genes in the liver; assay: CCl4-induced liver fibrosis: mRNA expression of fibrotic markers in whole liver homogenates; assay type: in vivo, Sprague Dawley rats; conditions: PXS-5153A treatment
# Experimental: The study was performed by Pharmalegacy with approval from local ethics committee. Sprague Dawley rats were orally administered with 0.25 μL/g Carbon tetrachloride (CCl4) in olive oil solution, starting from day 0, 3 times per week for 6 weeks. Animals were killed 48 hours after the last CCl4 administration. PXS‐5153A was given by oral gavage after 3 weeks of CCl4 administration and continued throughout the remainder of the study at 3 mg/kg (low dose) or 10 mg/kg (high dose) once a day or 10 mg/kg (high dose) three times a week. Alanine aminotransferase (ALT) and aspartate aminotransferase (AST) levels were assessed in the plasma. One lobe of the liver tissue was fixed in 10% formalin, stained for Sirius red and the percentage coverage area was measured. The remainder of the liver was snap frozen and used for protein, hydroxyproline and crosslink analysis.
# Total RNA was extracted with the PureLink RNA Mini Kit according to the manufacturer's instructions (Ambion), followed by the cDNA synthesis using SuperScript VILO cDNA Synthesis Kit (Life technologies). Gene expression was measured by the 2^−ΔΔCT method using ABI7500 (Applied Biosystems) with the ABI TaqMan primer sets as specified in the supporting information.
# Data was normalised to expression of the internal quantitative control (GAPDH) and expressed as the fold-change compared to the Sham treatment group.
# Potassium Channel hERG = Potassium Channel hERG (Homo sapiens, UniProt Q12809); assay: Eurofins Hit Profiling Screen; assay type: binding; conditions: 10 μmol/L
# Potassium Channel hERG, sequence (Q12809 whole entry): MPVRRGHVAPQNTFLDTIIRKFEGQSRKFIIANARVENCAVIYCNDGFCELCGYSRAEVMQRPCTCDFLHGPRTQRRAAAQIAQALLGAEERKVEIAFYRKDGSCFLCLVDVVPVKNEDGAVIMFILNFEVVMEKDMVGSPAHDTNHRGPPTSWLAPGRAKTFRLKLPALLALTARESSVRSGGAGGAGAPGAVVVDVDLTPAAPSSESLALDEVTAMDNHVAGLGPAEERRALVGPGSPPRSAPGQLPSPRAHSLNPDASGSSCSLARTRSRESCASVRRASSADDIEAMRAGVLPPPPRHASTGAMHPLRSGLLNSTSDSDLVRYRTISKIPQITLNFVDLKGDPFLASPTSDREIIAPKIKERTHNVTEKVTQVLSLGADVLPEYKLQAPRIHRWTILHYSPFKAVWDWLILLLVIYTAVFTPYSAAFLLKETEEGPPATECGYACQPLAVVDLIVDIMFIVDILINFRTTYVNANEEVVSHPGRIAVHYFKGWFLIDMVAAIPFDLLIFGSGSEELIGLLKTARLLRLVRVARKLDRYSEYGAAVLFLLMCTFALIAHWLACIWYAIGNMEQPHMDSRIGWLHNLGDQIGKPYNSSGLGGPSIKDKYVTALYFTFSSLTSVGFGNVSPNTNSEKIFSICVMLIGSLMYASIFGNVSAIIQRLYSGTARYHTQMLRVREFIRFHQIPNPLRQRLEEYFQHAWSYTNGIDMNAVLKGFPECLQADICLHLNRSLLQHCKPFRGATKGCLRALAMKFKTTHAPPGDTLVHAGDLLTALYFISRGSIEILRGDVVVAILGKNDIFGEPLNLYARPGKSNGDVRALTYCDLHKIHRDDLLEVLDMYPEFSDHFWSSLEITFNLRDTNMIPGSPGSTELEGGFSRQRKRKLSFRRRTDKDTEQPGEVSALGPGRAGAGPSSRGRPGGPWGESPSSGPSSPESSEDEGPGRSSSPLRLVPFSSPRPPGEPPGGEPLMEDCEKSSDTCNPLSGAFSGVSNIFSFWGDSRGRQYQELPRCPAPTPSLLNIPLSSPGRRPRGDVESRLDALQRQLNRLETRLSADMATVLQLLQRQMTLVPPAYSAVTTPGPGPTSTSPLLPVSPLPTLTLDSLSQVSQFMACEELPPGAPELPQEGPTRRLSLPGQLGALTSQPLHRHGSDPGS
# Sigma σ1 = Sigma σ1 (Homo sapiens, UniProt Q99720); assay: Eurofins Hit Profiling Screen; assay type: binding; conditions: 10 μmol/L
# Sigma σ1, sequence (Q99720 whole entry): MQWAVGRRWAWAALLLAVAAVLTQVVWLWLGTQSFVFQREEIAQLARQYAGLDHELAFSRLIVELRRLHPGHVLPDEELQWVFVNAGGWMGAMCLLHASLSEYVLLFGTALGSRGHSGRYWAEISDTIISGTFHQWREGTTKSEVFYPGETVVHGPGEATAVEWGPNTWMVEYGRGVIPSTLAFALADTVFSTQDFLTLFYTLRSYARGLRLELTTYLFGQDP
# Recombinant dog LOXL2 = target: T3, Recombinant dog LOXL2 (Canis lupus familiaris, UniProt A0A8I3P9Y5); assay: Amplex-Red fluorometric enzymatic activity assay, recombinant dog LOXL2; assay type: biochemical; conditions: 30 minute pre-incubation; average of at least three experiments
# T3 construct: made in house; host or cells: HEK-293 clones provided by Dr. Fernando Rodríguez Pascual
# T3 sequence (A0A8I3P9Y5 1-777): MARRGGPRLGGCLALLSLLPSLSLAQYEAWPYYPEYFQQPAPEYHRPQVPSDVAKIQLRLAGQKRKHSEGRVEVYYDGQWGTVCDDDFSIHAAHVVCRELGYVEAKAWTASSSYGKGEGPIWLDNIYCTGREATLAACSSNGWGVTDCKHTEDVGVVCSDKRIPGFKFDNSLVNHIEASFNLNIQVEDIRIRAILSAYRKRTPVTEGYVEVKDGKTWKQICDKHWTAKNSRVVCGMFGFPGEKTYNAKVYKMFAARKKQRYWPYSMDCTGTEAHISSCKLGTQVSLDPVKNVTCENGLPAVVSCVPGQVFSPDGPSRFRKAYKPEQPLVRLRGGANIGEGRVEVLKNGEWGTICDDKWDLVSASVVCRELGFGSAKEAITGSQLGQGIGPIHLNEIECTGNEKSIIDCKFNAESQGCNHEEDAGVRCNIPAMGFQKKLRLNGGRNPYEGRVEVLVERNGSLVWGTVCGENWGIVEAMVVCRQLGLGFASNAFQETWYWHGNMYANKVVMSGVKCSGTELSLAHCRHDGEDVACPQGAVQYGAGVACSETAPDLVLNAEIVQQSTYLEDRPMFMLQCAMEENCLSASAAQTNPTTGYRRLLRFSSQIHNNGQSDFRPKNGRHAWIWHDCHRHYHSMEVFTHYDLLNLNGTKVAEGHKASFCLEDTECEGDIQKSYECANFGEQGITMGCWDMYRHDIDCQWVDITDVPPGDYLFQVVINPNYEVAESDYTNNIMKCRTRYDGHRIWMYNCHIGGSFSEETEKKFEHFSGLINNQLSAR
# Experimental: as §1, §2
# [3] = test system: GABAA, Flunitrazepam, Central; assay: Eurofins Hit Profiling Screen; assay type: binding; conditions: 10 μmol/L
# [4] = target: Nicotinic Acetylcholine α1, Bungarotoxin (Homo sapiens, UniProt P02708+P07510+Q07001); assay: Eurofins Hit Profiling Screen; assay type: binding; conditions: 10 μmol/L
# Nicotinic Acetylcholine α1, Bungarotoxin, sequence (Q07001 22-517): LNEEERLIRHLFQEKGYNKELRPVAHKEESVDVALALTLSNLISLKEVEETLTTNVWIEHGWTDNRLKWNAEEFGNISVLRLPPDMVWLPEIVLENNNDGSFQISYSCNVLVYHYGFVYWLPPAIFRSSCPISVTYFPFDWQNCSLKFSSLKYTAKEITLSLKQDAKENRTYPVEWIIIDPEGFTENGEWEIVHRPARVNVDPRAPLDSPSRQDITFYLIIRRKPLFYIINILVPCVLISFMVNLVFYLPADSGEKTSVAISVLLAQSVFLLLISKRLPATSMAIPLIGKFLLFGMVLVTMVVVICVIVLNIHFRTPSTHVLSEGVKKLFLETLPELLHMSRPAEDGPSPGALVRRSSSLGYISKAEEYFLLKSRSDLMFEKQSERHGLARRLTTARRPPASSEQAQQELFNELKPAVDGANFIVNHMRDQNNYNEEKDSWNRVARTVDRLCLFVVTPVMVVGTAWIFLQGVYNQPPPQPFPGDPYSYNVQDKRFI
# Nicotinic Acetylcholine α1, Bungarotoxin, sequence (P02708 21-457): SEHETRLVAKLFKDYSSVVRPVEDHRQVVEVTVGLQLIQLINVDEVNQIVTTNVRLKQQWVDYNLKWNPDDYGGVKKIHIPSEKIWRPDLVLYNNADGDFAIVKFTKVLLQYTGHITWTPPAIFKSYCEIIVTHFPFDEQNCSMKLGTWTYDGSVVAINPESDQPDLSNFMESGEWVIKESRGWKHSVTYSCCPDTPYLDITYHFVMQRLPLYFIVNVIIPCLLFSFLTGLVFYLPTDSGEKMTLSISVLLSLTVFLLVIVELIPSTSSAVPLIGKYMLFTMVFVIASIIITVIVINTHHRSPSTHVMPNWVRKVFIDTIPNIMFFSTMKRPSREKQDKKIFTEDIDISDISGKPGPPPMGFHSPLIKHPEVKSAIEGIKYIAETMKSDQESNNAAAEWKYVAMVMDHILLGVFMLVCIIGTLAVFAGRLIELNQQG
# Nicotinic Acetylcholine α1, Bungarotoxin, sequence (P07510 23-517): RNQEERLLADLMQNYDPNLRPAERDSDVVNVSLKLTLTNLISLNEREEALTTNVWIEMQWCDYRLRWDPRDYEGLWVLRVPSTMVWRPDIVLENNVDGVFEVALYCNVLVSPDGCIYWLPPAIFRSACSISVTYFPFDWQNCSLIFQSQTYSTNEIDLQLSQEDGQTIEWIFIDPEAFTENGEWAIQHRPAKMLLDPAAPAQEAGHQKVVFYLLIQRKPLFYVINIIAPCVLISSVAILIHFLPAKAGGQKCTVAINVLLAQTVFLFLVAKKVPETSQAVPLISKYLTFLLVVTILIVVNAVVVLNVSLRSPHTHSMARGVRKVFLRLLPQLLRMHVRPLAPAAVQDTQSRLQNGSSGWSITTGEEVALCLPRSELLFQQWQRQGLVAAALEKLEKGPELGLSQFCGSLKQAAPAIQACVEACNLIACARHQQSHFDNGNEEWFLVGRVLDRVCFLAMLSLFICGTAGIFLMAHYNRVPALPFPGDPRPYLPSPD
# Nicotinic Acetylcholine α1, Bungarotoxin, sequence (P11230 24-501, further chain): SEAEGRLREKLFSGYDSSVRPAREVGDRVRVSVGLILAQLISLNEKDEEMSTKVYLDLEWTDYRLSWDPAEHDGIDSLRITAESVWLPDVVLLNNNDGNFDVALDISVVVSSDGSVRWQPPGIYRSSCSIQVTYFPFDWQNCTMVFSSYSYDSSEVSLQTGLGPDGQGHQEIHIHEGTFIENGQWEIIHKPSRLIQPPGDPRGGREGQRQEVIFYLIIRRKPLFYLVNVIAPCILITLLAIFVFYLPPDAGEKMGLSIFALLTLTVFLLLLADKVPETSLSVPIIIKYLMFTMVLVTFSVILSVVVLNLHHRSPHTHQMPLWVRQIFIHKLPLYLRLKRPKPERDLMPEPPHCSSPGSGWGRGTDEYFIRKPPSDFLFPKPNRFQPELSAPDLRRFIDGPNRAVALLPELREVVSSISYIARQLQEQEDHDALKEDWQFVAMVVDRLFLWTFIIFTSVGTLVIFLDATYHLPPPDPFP
# Sodium Channel, Site 2 = assay: Eurofins Hit Profiling Screen; assay type: binding; conditions: 10 μmol/L
compound,measurement,setting,value
Cc1c(-c2cccc(S(=O)(=O)N(C)C)c2)c2ncccc2n1C/C(F)=C/CN.Cl.Cl [PXS-5153A],% inhibition,[1],15%
same,IC50,Recombinant human LOXL3,63 nM
same,pIC50 ± SD,Recombinant human LOXL3,7.2 ± 0.23
same,time to complete inhibition of the enzyme,LOXL2; at 10xIC50,≤ 15 min
same,time until enzymatic activity almost entirely blocked,LOXL2; judged by the shift in the concentration response curves,≤ 15 min
same,time-dependent LOXL2 inhibition,LOXL2; longer incubation with the enzyme,increased potency upon longer incubation with the enzyme
same,induction of key fibrotic marker genes in the liver,[2],suppressed the induction
same,% inhibition,Potassium Channel hERG,47%
same,% inhibition,Sigma σ1,8%
same,IC50,Recombinant dog LOXL2,9 nM
same,pIC50 ± SD,Recombinant dog LOXL2,8.04 ± 0.05
same,% inhibition,[3],26%
same,% inhibition,[4],2%
same,% inhibition,"Sodium Channel, Site 2",57%
